In article PMC8073005, “Antifungal Activity and DNA Topoisomerase Inhibition of Hydrolysable Tannins from Punica granatum L” (International Journal of Molecular Sciences, 2021):
Values after ≈ are worked out from the molar mass of the structure shown.

What was measured:
[1] = biological target: T1, topoisomerase I from Candida albicans (Candida albicans, UniProt Q00313); experiment: Topoisomerase I supercoiled DNA relaxation inhibition; format: biochemical; conditions: mean ± SD; relaxation of supercoiled pBR322; concentration range 0.001–200 μM; read-out: IC50 Value Topoisomerase I
T1 sequence (Q00313 1-778): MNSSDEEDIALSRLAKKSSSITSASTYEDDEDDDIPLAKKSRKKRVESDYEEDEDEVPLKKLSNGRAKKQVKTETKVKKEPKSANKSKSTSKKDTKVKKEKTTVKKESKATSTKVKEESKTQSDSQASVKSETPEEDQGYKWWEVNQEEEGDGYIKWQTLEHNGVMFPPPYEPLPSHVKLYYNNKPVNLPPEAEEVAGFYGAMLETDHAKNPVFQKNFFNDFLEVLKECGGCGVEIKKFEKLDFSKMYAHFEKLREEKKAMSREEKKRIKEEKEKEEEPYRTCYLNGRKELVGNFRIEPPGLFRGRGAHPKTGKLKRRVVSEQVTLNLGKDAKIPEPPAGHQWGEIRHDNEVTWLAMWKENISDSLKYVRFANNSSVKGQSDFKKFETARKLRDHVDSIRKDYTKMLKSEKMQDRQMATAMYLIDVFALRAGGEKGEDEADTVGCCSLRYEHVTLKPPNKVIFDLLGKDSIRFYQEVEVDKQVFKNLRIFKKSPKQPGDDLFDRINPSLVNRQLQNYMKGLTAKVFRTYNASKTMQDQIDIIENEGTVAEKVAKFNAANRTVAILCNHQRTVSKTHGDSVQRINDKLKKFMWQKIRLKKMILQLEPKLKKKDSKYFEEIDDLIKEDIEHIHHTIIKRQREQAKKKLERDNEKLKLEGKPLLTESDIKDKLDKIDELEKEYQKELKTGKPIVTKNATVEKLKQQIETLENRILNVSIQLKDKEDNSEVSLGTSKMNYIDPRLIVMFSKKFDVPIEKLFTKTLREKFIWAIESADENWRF

[2] = test system: Cryptococcus var. grubii H99 serotype A; experiment: MIC, broth microdilution (human pathogens); format: cell-based; conditions: Cryptococcus var. grubii H99 serotype A; SDB, 30 °C, 48 h; read-out: Minimum inhibitory concentration (MIC)
[3] = test system: Candida albicans SC 5314; experiment: Time-kill curves; format: cell-based; conditions: C. albicans SC 5314; compound at its MIC value; 0–96 h

Structure (SMILES) | IC50 [1] [µM] | MIC [2] [µM] | time-kill curve (susceptibility time-course) [3]
O=C1OC[C@H]2OC(O)[C@H](O)[C@@H](O)[C@@H]2OC(=O)c2cc(O)c(O)c(O)c2-c2c(O)c(O)c3oc(=O)c4c(c(O)c(O)c5oc(=O)c2c3c54)-c2c1cc(O)c(O)c2O (mixture of isomers) [Punicalin, punicalin] | 14.7 ± 0.9 | 127 | 
O=c1oc2c(O)c(O)cc3c(=O)oc4c(O)c(O)cc1c4c23 [Ellagic Acid, ellagic acid] | 56.6 ± 1.2 | 662 (≈ 200 µg/mL) | better antifungal activity against the reference C. albicans strain after 72 h of exposure
